From article PMC9965906, “Discovery and Development Strategies for SARS-CoV-2 NSP3 Macrodomain Inhibitors” (Pathogens, 2023)
Values joined by “and” are separate entries in the source; they are usually repeats but may differ in a detail not shown here. Equal values may be shown once. Where a name gives a salt, the structure may show the parent alone. Read-outs that look alike come from different tables or passages of the source.

Target: SARS-CoV-2 NSP3 Mac1 (Severe acute respiratory syndrome coronavirus 2, UniProt P0DTD1)
Experiment: biochemical
Assay type: binding
Conditions: for inhibition at 125 µM: read-out: Inhibition at top concentration of 125 µM (%); for inhibition at 25 µM: BioAscent virtual screening hit compounds; for inhibitory activity in FDA-approved library screen: primary screen at the set screening concentration; for IC50: read-out: IC50
[1] = MIDAS hit compounds and analogues
[2] = MIDAS hit compounds and analogues, top concentration 125 µM, 8-point 1:1 dilution, duplicate
[3] = FDA-approved compound library primary screen, 50 µM, single shot

Row | SMILES | inhibition at 125 µM [1] [%] | IC50 in µM [2] | other results
1 | CCn1ncc2c(C(=O)N(C)Cc3ccccc3C)cc(-c3cccs3)nc21 [IAL-MD0042, CCN1N=CC=2C(=CC(=NC12)C3=CC=CS3)C(=O)N(C)CC=4C=CC=CC4C] | 20.9 | Not measurable | 
2 | CC(C#N)NC(=O)c1cc(-c2cccs2)nc2c1cnn2C(C)C (stereo not drawn) [IAL-MD0095, CC(C)N1N=CC=2C(=CC(=NC12)C3=CC=CS3)C(=O)NC(C)C#N] | 19.8 | Not measurable | 
3 | COc1cccc(NC(=O)c2cc(-c3cccs3)nc3c2cnn3C(C)C)c1 [IAL-MD0033, COC=1C=CC=C(NC(=O)C=2C=C(N=C3N(N=CC23)C(C)C)C4=CC=CS4)C1] | 12.1 | Not measurable | 
4 | COc1ccc(-c2cc(C(=O)Nc3ccc(S(C)(=O)=O)cc3)c3ccccc3n2)cc1 [IAL-MD0058, COC=1C=CC(=CC1)C=2C=C(C(=O)NC=3C=CC(=CC3)S(=O)(=O)C)C=4C=CC=CC4N2] | 18.7 | Not measurable | 
5 | CN1C(=O)c2ccc(N3CCCC3)cc2C1=O [BCC0067629, CN1C(=O)c2ccc(N3CCCC3)cc2C1=O] |  |  | inhibition at 25 µM (duplicate): 30.5%
6 | CC(C)n1ncc2c(C(=O)Nc3ccncc3)cc(-c3cccs3)nc21 [IAL-MD0055, CC(C)N1N=CC=2C(=CC(=NC12)C3=CC=CS3)C(=O)NC=4C=CN=CC4] | 19.4 | Not measurable | 
7 | CCn1ncc2c(C(=O)Nc3cc(Cl)ccc3OC)cc(-c3cccs3)nc21 [IAL-MD0038, CCN1N=CC=2C(=CC(=NC12)C3=CC=CS3)C(=O)NC=4C=C(Cl)C=CC4OC] | 50.5 | Not measurable | 
8 | CC(C)n1ncc2c(C(=O)N3CCCCC3C(=O)N3CCCC3)cc(-c3cccs3)nc21 (stereo not drawn) [IAL-MD0080, CC(C)N1N=CC=2C(=CC(=NC12)C3=CC=CS3)C(=O)N4CCCCC4C(=O)N5CCCC5] | 45.9 | Not measurable | 
9 | COc1ccc(-c2cc(C(=O)O)c3ccccc3n2)cc1OC [IAL-MD0094, COC=1C=CC(=CC1OC)C=2C=C(C(=O)O)C=3C=CC=CC3N2] | 31.9 | Not measurable | 
10 | CC1c2cccn2CCN1C(=O)c1cc(-c2cccs2)nc2c1cnn2C(C)C (stereo not drawn) [IAL-MD0072, CC(C)N1N=CC=2C(=CC(=NC12)C3=CC=CS3)C(=O)N4CCN5C=CC=C5C4C] | 9.8 | Not measurable | 
11 | CCn1ncc2c(C(=O)NC(C)c3ccccn3)cc(-c3cccs3)nc21 (stereo not drawn) [IAL-MD0119, CCN1N=CC=2C(=CC(=NC12)C3=CC=CS3)C(=O)NC(C)C=4C=CC=CN4] | 6.3 | Not measurable | 
12 | O=c1ccsn1-c1ccc(F)c(Cl)c1 [BCC0125028, O=c1ccsn1-c1ccc(F)c(Cl)c1] |  |  | inhibition at 25 µM (duplicate): 57.5%
13 | O=C(O)CCc1nc(-c2ccccc2)c(-c2ccccc2)o1 [oxaprozin, reference compound] |  |  | inhibitory activity in FDA-approved library screen: could not be identified in our screen
14 | Cc1cc(CN(C)C(=O)c2cc(-c3cccs3)nc3c2cnn3C(C)C)no1 [IAL-MD0073, CC(C)N1N=CC=2C(=CC(=NC12)C3=CC=CS3)C(=O)N(C)CC=4C=C(C)ON4] | 47 | Not measurable | 
15 | CCCNC(=O)c1cc(-c2ccc(OC)cc2)nc2ccccc12 [IAL-MD0098, CCCNC(=O)C=1C=C(N=C2C=CC=CC12)C=3C=CC(OC)=CC3] | 22 | Not measurable | 
16 | CC1CN(C(=O)c2cc(-c3cccs3)nc3c2cnn3C(C)C)C(C)(C)CO1 (stereo not drawn) [IAL-MD0087, CC(C)N1N=CC=2C(=CC(=NC12)C3=CC=CS3)C(=O)N4CC(C)OCC4(C)C] | 22.3 | Not measurable | 
17 | CC(C)n1ncc2c(C(=O)N3CCc4ccccc4C3)cc(-c3cccs3)nc21 [IAL-MD0060, CC(C)N1N=CC=2C(=CC(=NC12)C3=CC=CS3)C(=O)N4CCC=5C=CC=CC5C4] | 1.9 | Not measurable | 
18 | CCn1ncc2c(C(=O)NCC(=O)N(C)C)cc(-c3cccs3)nc21 [IAL-MD0074, CCN1N=CC=2C(=CC(=NC12)C3=CC=CS3)C(=O)NCC(=O)N(C)C] | 77.7 |  | IC50 [2]: 25.3 µM
19 | Oc1nc2ccccc2nc1-c1c[nH]c2ccccc12 [BCC0071692, Oc1nc2ccccc2nc1-c1c[nH]c2ccccc12] |  |  | inhibition at 25 µM (duplicate): 35%
20 | CCn1ncc2c(C(=O)N3CCC(C(O)c4ccccc4)CC3)cc(-c3cccs3)nc21 (stereo not drawn) [IAL-MD0056, CCN1N=CC=2C(=CC(=NC12)C3=CC=CS3)C(=O)N4CCC(CC4)C(O)C=5C=CC=CC5] | 7 | Not measurable | 
21 | Cc1nn(C)c2nc(-c3cccs3)cc(C(=O)NCc3ccccn3)c12 [IAL-MD0048, CC1=NN(C)C=2N=C(C=C(C(=O)NCC=3C=CC=CN3)C12)C4=CC=CS4] | 15.8 | Not measurable | 
22 | COc1ccc(-c2cc(C(=O)N(C)C)c3ccccc3n2)cc1 [IAL-MD0088, COC=1C=CC(=CC1)C=2C=C(C(=O)N(C)C)C=3C=CC=CC3N2] | 79.4 |  | IC50 [2]: 24 µM

Row | SMILES | inhibition at 125 µM [1] [%] | IC50 in µM [2] | other results
23 | CCCNC(=O)c1ccc(-c2ccnc3c2ccn3C)o1 [IAL-MD0148, O=C(NCCC)C1=CC=C(C2=C3C(N(C)C=C3)=NC=C2)O1] |  |  | Inhibition at top concentration of 125 µM (%) [1]: Not measurable due to compound precipitation; IC50 [2]: 7.7 µM
24 | COc1ccc(-c2cc(C(=O)Nc3nnc[nH]3)c3ccccc3n2)cc1 [IAL-MD0079, COC=1C=CC(=CC1)C=2C=C(C(=O)NC3=NN=CN3)C=4C=CC=CC4N2] | 16.3 | Not measurable | 
25 | Cn1ccc2c(-c3cncc(C(=O)N4CCCCC4)n3)ccnc21 [IAL-MD0137, O=C(C1=CN=CC(C2=C3C(N(C)C=C3)=NC=C2)=N1)N4CCCCC4] | 25.8 | Not measurable | 
26 | NNc1nncc2ccccc12 [hydralazine, reference compound] |  |  | inhibitory activity in FDA-approved library screen: no NSP3 Mac1 inhibition
27 | CONC(=O)c1cc(-c2ccc(OC)cc2)nc2ccccc12 [IAL-MD0024, CONC(=O)C=1C=C(N=C2C=CC=CC12)C=3C=CC(OC)=CC3] | 60.3 |  | IC50 [2]: 68 µM
28 | C=CC1=C(C)c2cc3[nH]c(cc4nc(cc5[nH]c(cc1n2)c(C)c5CCC(=O)O)C(CCC(=O)O)=C4C)c(C)c3C=C [Protoporphyrin IX, reference compound] |  |  | inhibition at 50 µM [3]: 75%
29 | Nc1ccc2oc(-c3cccnc3)nc2c1 [BCC0105824, Nc1ccc2oc(-c3cccnc3)nc2c1] |  |  | inhibition at 25 µM (duplicate): 30.1%
30 | CCC(C)NC(=O)c1cc(-c2ccc(OC)cc2)nc2ccccc12 (stereo not drawn) [IAL-MD0035, CCC(C)NC(=O)C=1C=C(N=C2C=CC=CC12)C=3C=CC(OC)=CC3] | 6.8 | Not measurable | 
31 | COc1ccc(-c2cc(C(=O)Nc3ccc4ccccc4c3)c3ccccc3n2)cc1 [IAL-MD0118, COC=1C=CC(=CC1)C=2C=C(C(=O)NC=3C=CC=4C=CC=CC4C3)C=5C=CC=CC5N2] | 25.6 | Not measurable | 
32 | COc1cc2c(cc1/C=C/C(=O)O)OC(C)C2 (stereo not drawn) [IAL-MD0306, COc1cc2c(cc1/C=C/C(=O)O)OC(C)C2] |  |  | inhibition at 187 µM (BioAscent hit compounds, 187 µM, read-out: Inhibition at top screening concentration of 187 µM): 81.3%; Hill slope (BioAscent hit compounds, confirmatory IC50 curves): 0.8; IC50 (BioAscent hit compounds, top concentration 187 µM, 8-point 1:1 dilution, duplicate): 18 µM; inhibition at 25 µM (duplicate): 63.7%
33 | Nc1ccc2c(c1)C/C(=C/c1ccco1)C2=O [BCC0121661, Nc1ccc2c(c1)C/C(=C/c1ccco1)C2=O] |  |  | inhibition at 25 µM (duplicate): 56.9%
34 | CCn1ncc2c(C(=O)N3CCN(C(=O)c4ccccc4)CC3)cc(-c3ccccc3)nc21 [IAL-MD0069, CCN1N=CC=2C(=CC(=NC12)C=3C=CC=CC3)C(=O)N4CCN(CC4)C(=O)C=5C=CC=CC5] |  | Not measurable | Inhibition at top concentration of 125 µM (%) [1]: Not measurable
35 | CC(=O)[O][Hg][c]1ccccc1 [Phenylmercuric acetate, reference compound] |  |  | NSP3 Mac1 inhibition at 50 µM (%): 58.1%
36 | CC1(C(=O)N2CCCC(c3c[nH]c4ncccc34)C2)CCC(=O)NC1 (stereo not drawn) [IAL-MD0114, CC1(CCC(=O)NC1)C(=O)N2CCCC(C2)C3=CNC=4N=CC=CC34] | 13.4 | Not measurable | 
37 | Nc1ccc(S(=O)(=O)[O-])cc1.Nc1ccc(S(=O)(=O)[O-])cc1.O.O.O.O.[Zn+2] [Sulfanilate zinc, reference compound] |  |  | NSP3 Mac1 inhibition at 50 µM (%) [3]: 44.2%
38 | Nc1ncnc2[nH]cnc12 [adenine, reference compound] |  |  | inhibitory activity in FDA-approved library screen: did not show any inhibitory activity
39 | CC(C)n1ncc2c(C(=O)N(C)Cc3cccc(O)c3)cc(-c3cccs3)nc21 [IAL-MD0104, CC(C)N1N=CC=2C(=CC(=NC12)C3=CC=CS3)C(=O)N(C)CC=4C=CC=C(O)C4] | 18.4 | Not measurable | 
40 | CN(C)C(=O)c1ccc(-c2ccnc3c2ccn3C)o1 [IAL-MD0133, O=C(N(C)C)C1=CC=C(C2=C3C(N(C)C=C3)=NC=C2)O1] |  |  | Inhibition at top concentration of 125 µM (%) [1]: Not measurable due to compound precipitation; IC50 [2]: 8.5 µM
41 | O=C1c2c(O)ccc(O)c2C(=O)c2c(NCCNCCO)ccc(NCCNCCO)c21 [Mitoxantrone hydrochloride, reference compound] |  |  | IC50 (FDA-approved hit compounds re-supplied, top concentration 125 µM): 14.1 µM and ~14 µM
42 | CCN(C)C(=O)c1ccc(-c2ccnc3c2ccn3C)nc1 [IAL-MD0144, O=C(N(CC)C)C1=CN=C(C2=C3C(N(C)C=C3)=NC=C2)C=C1] | 23.8 | Not measurable | 
43 | Cc1nn(C)c2nc(-c3ccccc3)cc(C(=O)N3CCN(C(=O)C4CC4)CC3)c12 [IAL-MD0045, CC1=NN(C)C=2N=C(C=C(C(=O)N3CCN(CC3)C(=O)C4CC4)C12)C=5C=CC=CC5] | 47.5 | Not measurable | 
44 | Cn1ccc2c(-c3ccc(C(=O)NC4CC4)o3)ccnc21 [IAL-MD0132, O=C(NC1CC1)C2=CC=C(C3=C4C(N(C)C=C4)=NC=C3)O2] |  |  | Inhibition at top concentration of 125 µM (%) [1]: Not measurable due to compound precipitation; IC50 [2]: 7.2 µM
